Laboratory results from ChEMBL document CHEMBL1201862, “PubChem BioAssay data set” (2004).
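The compound was tested at five concentrations on cells cultured in 96-well plates, with a 48-hour exposure period. GI50 is the concentration that inhibits growth by half.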 Calls of active or inactive are those of the source. Rule as the data show it: active = GI50 up to about 1.1 µM and inactive = higher.

Tests used:
Assay in all cases: growth of human tumour cells (NCI), 48 h
[1] = test system: 786-0
[2] = test system: A498
[3] = test system: A549
[4] = test system: ACHN
[5] = test system: BT-549
[6] = test system: CAKI-1
[7] = test system: COLO 205
[8] = test system: DU-145
[9] = test system: EKVX
[10] = test system: HCT-116
[11] = test system: HCT-15
[12] = test system: HOP-62
[13] = test system: HOP-92
[14] = test system: HT-29
[15] = test system: Hs-578T
[16] = test system: IGROV-1
[17] = test system: K562
[18] = test system: KM12
[19] = test system: LOX IMVI
[20] = test system: M14
[21] = test system: MCF7
[22] = test system: MDA-MB-231
[23] = test system: MDA-MB-435
[24] = test system: MDA-N
[25] = test system: MOLT-4
[26] = test system: Malme-3M
[27] = test system: NCI-H226
[28] = test system: NCI-H23
[29] = test system: NCI-H460
[30] = test system: NCI-H522
[31] = test system: NCI/ADR-RES
[32] = test system: OVCAR-3
[33] = test system: OVCAR-4
[34] = test system: OVCAR-5
[35] = test system: OVCAR-8
[36] = test system: PC-3
[37] = test system: RPMI-8226
[38] = test system: RXF 393
[39] = test system: SF-268
[40] = test system: SF-295
[41] = test system: SF-539
[42] = test system: SK-MEL-28
[43] = test system: SK-MEL-2
[44] = test system: SK-MEL-5
[45] = test system: SK-OV-3
[46] = test system: SN12C
[47] = test system: SNB-19
[48] = test system: SNB-75
[49] = test system: SR
[50] = test system: SW-620
[51] = test system: T47D
[52] = test system: TK-10
[53] = test system: U-251
[54] = test system: UACC-257
[55] = test system: UACC-62
[56] = test system: UO-31
[57] = test system: HL-60

**Q.** Which GI50 [1] does the source give for `NC(Cc1c[nH]c2cc([N+](=O)[O-])ccc12)C(=O)O` (stereo unspecified) here?
**A.** > 100 µM (inactive)

**Q.** And the GI50 [2]?
**A.** > 100 µM (inactive)

**Q.** What about the GI50 [3] of the same compound?
**A.** > 100 µM (inactive)

**Q.** And the GI50 [4]?
**A.** > 100 µM (inactive)

**Q.** And the GI50 [5]?
**A.** > 100 µM (inactive)

**Q.** And the GI50 [6]?
**A.** > 100 µM (inactive)

**Q.** What about the GI50 [7] of the same compound?
**A.** > 100 µM (inactive)

**Q.** And the GI50 [8]?
**A.** > 100 µM (inactive)

**Q.** What about the GI50 [9] of the same compound?
**A.** > 100 µM (inactive)

**Q.** And the GI50 [10]?
**A.** > 100 µM (inactive)

**Q.** And the GI50 [11]?
**A.** > 100 µM

**Q.** And the GI50 [12]?
**A.** > 100 µM (inactive)

**Q.** What about the GI50 [13] of the same compound?
**A.** 67.6 µM (inactive)

**Q.** And the GI50 [14]?
**A.** > 100 µM (inactive)

**Q.** What about the GI50 [15] of the same compound?
**A.** > 100 µM (inactive)

**Q.** And the GI50 [16]?
**A.** 57.4 µM (inactive)

**Q.** And the GI50 [17]?
**A.** > 100 µM (inactive)

**Q.** What about the GI50 [18] of the same compound?
**A.** > 100 µM (inactive)

**Q.** And the GI50 [19]?
**A.** > 100 µM (inactive)

**Q.** And the GI50 [20]?
**A.** > 100 µM (inactive)

**Q.** What about the GI50 [21] of the same compound?
**A.** > 100 µM (inactive)

**Q.** What about the GI50 [22] of the same compound?
**A.** > 100 µM (inactive)

**Q.** What about the GI50 [23] of the same compound?
**A.** > 100 µM (inactive)

**Q.** And the GI50 [24]?
**A.** > 100 µM (inactive)

**Q.** What about the GI50 [25] of the same compound?
**A.** > 100 µM (inactive)

**Q.** And the GI50 [26]?
**A.** > 100 µM (inactive)

**Q.** What about the GI50 [27] of the same compound?
**A.** 33.7 µM (inactive)

**Q.** And the GI50 [28]?
**A.** > 100 µM (inactive)

**Q.** And the GI50 [29]?
**A.** > 100 µM (inactive)

**Q.** And the GI50 [30]?
**A.** > 100 µM (inactive)

**Q.** What about the GI50 [31] of the same compound?
**A.** > 100 µM (inactive)

**Q.** What about the GI50 [32] of the same compound?
**A.** > 100 µM (inactive)

**Q.** And the GI50 [33]?
**A.** > 100 µM (inactive)

**Q.** And the GI50 [34]?
**A.** > 100 µM (inactive)

**Q.** What about the GI50 [35] of the same compound?
**A.** > 100 µM (inactive)

**Q.** What about the GI50 [36] of the same compound?
**A.** > 100 µM (inactive)

**Q.** And the GI50 [37]?
**A.** > 100 µM (inactive)

**Q.** What about the GI50 [38] of the same compound?
**A.** > 100 µM (inactive)

**Q.** What about the GI50 [39] of the same compound?
**A.** > 100 µM (inactive)

**Q.** What about the GI50 [40] of the same compound?
**A.** > 100 µM (inactive)

**Q.** And the GI50 [41]?
**A.** > 100 µM (inactive)

**Q.** What about the GI50 [42] of the same compound?
**A.** > 100 µM (inactive)

**Q.** And the GI50 [43]?
**A.** > 100 µM (inactive)

**Q.** And the GI50 [44]?
**A.** > 100 µM (inactive)

**Q.** And the GI50 [45]?
**A.** > 100 µM (inactive)

**Q.** What about the GI50 [46] of the same compound?
**A.** > 100 µM (inactive)

**Q.** What about the GI50 [47] of the same compound?
**A.** > 100 µM (inactive)

**Q.** What about the GI50 [48] of the same compound?
**A.** > 100 µM (inactive)

**Q.** What about the GI50 [49] of the same compound?
**A.** > 100 µM (inactive)

**Q.** What about the GI50 [50] of the same compound?
**A.** > 100 µM (inactive)

**Q.** And the GI50 [51]?
**A.** > 100 µM (inactive)

**Q.** And the GI50 [52]?
**A.** > 100 µM (inactive)

**Q.** What about the GI50 [53] of the same compound?
**A.** > 100 µM (inactive)

**Q.** And the GI50 [54]?
**A.** > 100 µM (inactive)

**Q.** What about the GI50 [55] of the same compound?
**A.** > 100 µM (inactive)

**Q.** What about the GI50 [56] of the same compound?
**A.** > 100 µM (inactive)

**Q.** With `O=[N+]([O-])c1ccc(C(Nc2ccccc2)P(c2ccccc2)c2ccccc2)cc1` (stereo unspecified) as the compound, how does the GI50 [1] read?
**A.** > 100 µM (inactive)

**Q.** And the GI50 [2]?
**A.** > 100 µM (inactive)

**Q.** And the GI50 [3]?
**A.** > 100 µM (inactive)

**Q.** What about the GI50 [4] of the same compound?
**A.** > 100 µM (inactive)

**Q.** And the GI50 [5]?
**A.** > 100 µM (inactive)

**Q.** What about the GI50 [6] of the same compound?
**A.** > 100 µM (inactive)

**Q.** What about the GI50 [7] of the same compound?
**A.** > 100 µM (inactive)

**Q.** And the GI50 [8]?
**A.** > 100 µM (inactive)

**Q.** What about the GI50 [9] of the same compound?
**A.** > 100 µM (inactive)

**Q.** And the GI50 [10]?
**A.** 8.81 µM (inactive)

**Q.** And the GI50 [11]?
**A.** > 100 µM

**Q.** And the GI50 [57]?
**A.** > 100 µM (inactive)

**Q.** And the GI50 [12]?
**A.** 67.3 µM (inactive)

**Q.** What about the GI50 [13] of the same compound?
**A.** > 100 µM (inactive)

**Q.** What about the GI50 [14] of the same compound?
**A.** > 100 µM (inactive)

**Q.** What about the GI50 [15] of the same compound?
**A.** > 100 µM (inactive)

**Q.** What about the GI50 [16] of the same compound?
**A.** > 100 µM (inactive)

**Q.** And the GI50 [17]?
**A.** 22.5 µM (inactive)

**Q.** And the GI50 [18]?
**A.** > 100 µM (inactive)

**Q.** And the GI50 [19]?
**A.** > 100 µM (inactive)

**Q.** And the GI50 [20]?
**A.** > 100 µM (inactive)

**Q.** What about the GI50 [21] of the same compound?
**A.** > 100 µM (inactive)

**Q.** And the GI50 [22]?
**A.** > 100 µM (inactive)

**Q.** And the GI50 [23]?
**A.** > 100 µM (inactive)

**Q.** And the GI50 [24]?
**A.** > 100 µM (inactive)

**Q.** What about the GI50 [25] of the same compound?
**A.** 24.1 µM (inactive)

**Q.** And the GI50 [26]?
**A.** > 100 µM (inactive)

**Q.** What about the GI50 [27] of the same compound?
**A.** > 100 µM (inactive)

**Q.** And the GI50 [28]?
**A.** > 100 µM (inactive)

**Q.** What about the GI50 [29] of the same compound?
**A.** > 100 µM (inactive)

**Q.** And the GI50 [30]?
**A.** > 100 µM (inactive)

**Q.** What about the GI50 [31] of the same compound?
**A.** > 100 µM (inactive)

**Q.** What about the GI50 [33] of the same compound?
**A.** > 100 µM (inactive)

**Q.** And the GI50 [34]?
**A.** > 100 µM (inactive)

**Q.** What about the GI50 [35] of the same compound?
**A.** > 100 µM (inactive)

**Q.** And the GI50 [36]?
**A.** > 100 µM (inactive)

**Q.** What about the GI50 [38] of the same compound?
**A.** > 100 µM (inactive)

**Q.** What about the GI50 [39] of the same compound?
**A.** > 100 µM (inactive)

**Q.** And the GI50 [40]?
**A.** 44.7 µM (inactive)

**Q.** And the GI50 [41]?
**A.** > 100 µM (inactive)

**Q.** And the GI50 [42]?
**A.** > 100 µM (inactive)

**Q.** What about the GI50 [43] of the same compound?
**A.** > 100 µM (inactive)

**Q.** What about the GI50 [44] of the same compound?
**A.** > 100 µM (inactive)

**Q.** What about the GI50 [45] of the same compound?
**A.** > 100 µM (inactive)

**Q.** And the GI50 [46]?
**A.** > 100 µM (inactive)

**Q.** And the GI50 [47]?
**A.** > 100 µM (inactive)

**Q.** What about the GI50 [48] of the same compound?
**A.** > 100 µM (inactive)

**Q.** What about the GI50 [49] of the same compound?
**A.** > 100 µM (inactive)

**Q.** What about the GI50 [50] of the same compound?
**A.** > 100 µM (inactive)

**Q.** And the GI50 [51]?
**A.** > 100 µM (inactive)

**Q.** And the GI50 [52]?
**A.** > 100 µM (inactive)

**Q.** And the GI50 [53]?
**A.** > 100 µM (inactive)

**Q.** And the GI50 [54]?
**A.** > 100 µM (inactive)

**Q.** What about the GI50 [55] of the same compound?
**A.** > 100 µM (inactive)

**Q.** And the GI50 [56]?
**A.** > 100 µM (inactive)
